The values below come from paper PMC9781983, “Identification of Darunavir Derivatives for Inhibition of SARS-CoV-2 3CL^pro” (International Journal of Molecular Sciences, 2022).

Data set [1] concerns the target T1, SARS-CoV-2 3CL^pro (Severe acute respiratory syndrome coronavirus 2, UniProt P0DTD1). The data set is described as follows: biochemical. It counts as biochemical. The following applies: for IC50: FRET dose-response, 100 nM 3CL^pro pre-incubated 30 min at 30 °C, 10 µM substrate, read-out: IC50 against SARS-CoV-2 3CL^pro.
For the next data set, the system named is rats. As to conditions: taken orally, ref [7],[34]; cited from earlier work.
Another data set can be described thus: in vitro. As to conditions: human.
The target of data set [2] is T1, SARS-CoV-2 3CL^pro. The data set is described as follows: cell-based.
Data set [3] addresses T1, SARS-CoV-2 3CL^pro. The data set is described as follows: Bio-layer interferometry (BLI) kinetic binding assay. As to conditions: for Binding to SARS-CoV-2 3CL^pro: 6.25 to 100 or 200 µM; for koff: read-out: Kdis. For orientation: In BLI a coated tip is dipped into the sample, and binding shifts an interference pattern.
A further data set has as its target Cathepsin L (Homo sapiens, UniProt P07711). Put plainly: Counter screen against Cathepsin L. Format: biochemical. The following applies: dose-response, Figure S1.
For data set [4], the target named is Norovirus RNA-dependent RNA polymerase (RdRp) (Norovirus, UniProt Q83883). Put plainly: BLI binding assay, non-specific binding control. As to conditions: Figure S2.
The mark [5] stands for this setting: single concentration of 20 μM, normalized to DMSO control.

Read-outs that look alike come from different tables or passages of the source.

Cathepsin L, sequence (P07711 114-333): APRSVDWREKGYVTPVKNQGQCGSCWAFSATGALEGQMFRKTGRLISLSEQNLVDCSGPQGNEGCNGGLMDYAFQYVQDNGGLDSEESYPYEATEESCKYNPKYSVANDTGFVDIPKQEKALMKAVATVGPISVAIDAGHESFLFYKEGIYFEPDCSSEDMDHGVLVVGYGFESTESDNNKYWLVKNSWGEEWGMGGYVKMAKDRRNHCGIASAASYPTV
Norovirus RNA-dependent RNA polymerase (RdRp), sequence (Q83883 1282-1789): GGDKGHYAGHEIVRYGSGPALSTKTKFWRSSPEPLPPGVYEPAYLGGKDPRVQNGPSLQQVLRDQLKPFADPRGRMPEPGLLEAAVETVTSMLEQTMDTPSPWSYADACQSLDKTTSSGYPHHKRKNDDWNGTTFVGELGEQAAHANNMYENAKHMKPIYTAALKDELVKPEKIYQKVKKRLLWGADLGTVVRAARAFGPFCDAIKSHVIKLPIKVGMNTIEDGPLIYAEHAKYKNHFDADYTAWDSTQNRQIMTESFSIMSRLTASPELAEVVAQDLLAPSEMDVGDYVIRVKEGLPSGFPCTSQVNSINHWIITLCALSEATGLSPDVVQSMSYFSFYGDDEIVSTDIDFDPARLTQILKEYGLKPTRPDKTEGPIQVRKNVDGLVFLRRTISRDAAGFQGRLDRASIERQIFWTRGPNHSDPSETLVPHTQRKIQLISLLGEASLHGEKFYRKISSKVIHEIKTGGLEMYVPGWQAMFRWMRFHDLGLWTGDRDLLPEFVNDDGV

With `CC(C)CN(C[C@@H](O)[C@H](Cc1ccccc1)NC(=O)O[C@H]1CO[C@H]2OCC[C@H]21)S(=O)(=O)c1ccc(N)cc1` [Darunavir], the “Inhibition of 3CL^pro activity in primary screening” value (“Inhibition of 3CL^pro activity” below) on SARS-CoV-2 3CL^pro [1] (setting [5]) is reported as “no inhibitory activity”.

Consider `O=c1c2ccccc2[se]n1-c1ccccc1` [Ebselen, ebselen, reference compound], for which the median lethal dose in the data set with rats was over 4600 mg/kg. Further, at SARS-CoV-2 3CL^pro [1], the Hill slope is given as 1.91±0.22 and the “Inhibition of 3CL^pro activity” value is recorded as “strongly inhibit”.

Turning to `COc1ccc(S(=O)(=O)N(CC(C)O)CC(O)C(Cc2ccccc2)NC(=O)C2(O)CC(O)C(O)C(OC(=O)C=Cc3ccc(O)c(O)c3)C2)cc1` (stereo not drawn) [50#], the CC50 in “in vitro” turned out to be 49 µM. The EC50 at SARS-CoV-2 3CL^pro [2] came out at 13.5 µM. At SARS-CoV-2 3CL^pro [3] (BLI), the Kd amounted to 62 µM and the “Binding to SARS-CoV-2 3CL^pro” value is “dose-dependent manner”. Further, on SARS-CoV-2 3CL^pro [3] (ForteBio Octet System), binding was put at a Kd of 62.1 µM, the kon worked out at 455 M⁻¹ s⁻¹ and the koff is 0.0282 s⁻¹. Besides, the “Inhibitory effect against Cathepsin L” value at Cathepsin L was “very limited inhibitory effect”. The same molecule displayed a Hill slope at SARS-CoV-2 3CL^pro [1] (FRET dose-response curve) of 1.93±0.30. Also, the IC50 on SARS-CoV-2 3CL^pro [1] is 3.5 µM. Besides, the “Inhibition of 3CL^pro activity” value on SARS-CoV-2 3CL^pro [1] (setting [5]) is “significant inhibition”. For the same molecule, the “KD with Norovirus RdRp” value in data set [4] is “either a large KD value or a not-detected KD value”.

In turn, `COc1ccc(S(=O)(=O)N(CC(C)O)CC(O)C(Cc2ccccc2)NC(=O)c2ccc(O)c(O)c2)cc1` (stereo not drawn) [29#] had a CC50 in “in vitro” of 24.8 µM. On SARS-CoV-2 3CL^pro [2], this molecule gave an EC50 of 8.9 µM. The “Binding to SARS-CoV-2 3CL^pro” value at SARS-CoV-2 3CL^pro [3] (BLI) is recorded as “dose-dependent manner”. On SARS-CoV-2 3CL^pro [3] (ForteBio Octet System), the Kd turned out to be 52.7 µM, the kon was 374 M⁻¹ s⁻¹ and the koff amounted to 0.0197 s⁻¹. Besides, on Cathepsin L, the “Inhibitory effect against Cathepsin L” value is “very limited inhibitory effect”. For the same molecule, the Hill slope at SARS-CoV-2 3CL^pro [1] (FRET dose-response curve) was 1.78±0.32. Moreover, the IC50 on SARS-CoV-2 3CL^pro [1] was determined as 6.3 µM. Moreover, the “Inhibition of 3CL^pro activity” value at SARS-CoV-2 3CL^pro [1] (setting [5]) is recorded as “significant inhibition”. The “KD with Norovirus RdRp” value in data set [4] is “either a large KD value or a not-detected KD value”.

For orientation: Hill slope means the slope factor of the fitted curve. In general, EC50 refers to the midpoint of the concentration-response curve. A high value points to a less potent agent. As a reminder, the Kd is the free concentration of one partner at which half of the binding sites on the other are occupied at equilibrium, for simple one-to-one binding. Usually kon stands for a measure of how fast the partners come together. A low value points to slow association. As a reminder, the IC50 is the concentration that gives 50% inhibition.
